Laboratory results from paper PMC7278979, “Ellagic Acid Controls Cell Proliferation and Induces Apoptosis in Breast Cancer Cells via Inhibition of Cyclin-Dependent Kinase 6” (International Journal of Molecular Sciences, 2020).

Columns and labels:
CDK6 [1] = target: T1, CDK6 (Homo sapiens, UniProt Q00534); assay: Isothermal titration calorimetry of EA with CDK6; conditions: ITC, 25 °C, one binding site model; read-out: Ka (binding constant) (converted)
T1 construct: The 981-bp coding region (326 amino acids) was amplified by PCR from plasmid pcDNA containing the CDK6 gene; His-tag; made in house; host or cells: E. coli BL21 (codon+), pET28a+ (NcoI/XhoI)
Experimental: ITC measurements were carried out at 25 °C using a VP-ITC microcalorimeter (MicroCal, Inc, GE, MicroCal, USA). The sample cell was filled with 15–20 µM CDK6 and 500 µM EA solution was filled in the syringe. An automated titration was carried out with (including a first false injection of 2 μL) a successive injection of 10 μL EA solution into a CDK6 sample cell at a 260 s interval with 320 rpm stirring speed. For analysis, the heat of dilution of EA in the sample buffer was subtracted from the titration data. MicroCal Origin 8.0 was used to analyze the stoichiometry of binding (n), enthalpy change (ΔH), an association constant (Ka).

MDA-MB-231 cells [2] = assay: Cell viability MTT assay; assay type: cell-based; conditions: Homo sapiens, MDA-MB-231, 48 h (Figure 8 legend; method says 72 h), mean ± SD n = 3
Experimental: (§1) Cell viabilities of cancer cells with or without EA were evaluated using MTT assay. Briefly, the selected cells (MCF-7 and MDA-MB-231) were seeded in a 96-well (5000–6000 cells/well) culture plate. Overnight grown cells were incubated with EA (0–250 μM) for 72 h in a CO2 incubator, at 37 °C. After a stipulated time of treatment, 20 µL of MTT (from 5 mg/mL stock solution in PBS, pH 7.4) was added to each treatment well of 96-well plate, and plates with MTT solution were incubated additionally for 4–5 h, in the CO2 incubator. Lastly, the formazan were solubilized by adding 100 µL of DMSO to each well. The absorbance (A) of the dissolved purple reaction solution was measured at 570 nm. Absorption readings were converted into percent cell viability and used to estimate 50% inhibitory concentration (IC50) of EA for selected cancer cells.

MCF-7 cells [3] = assay: Cell viability MTT assay; assay type: cell-based; conditions: Homo sapiens, MCF7, MCF-7, 48 h (Figure 8 legend; method says 72 h), mean ± SD n = 3
Experimental: as §1

MDA-MB-231 cells [4] = assay: Colony formation assay; assay type: cell-based, human; conditions: MDA-MB-231, IC50 concentration of EA, 10–12 days, vs vehicle control
Experimental: (§2) To perceive the effect of EA treatment on the colonogenic potential of selected cell lines colony formation studies were performed as described previously. Briefly, ~1500–2000 (MCF-7/MDA-MB-231 cells) cells/well were seeded (in triplicates) in each well of a 6-well cell culture plate. The cells were grown in complete cell growth medium for 48 h and incubated with respective IC50 concentrations of EA for 10–12 days, (at 37 °C, in a 5% CO2 incubator). On the other hand, the control cells were incubated with vehicle control (DMSO) under similar experimental conditions. After 10–12 days, the colonies of cells were fixed with 100% methanol and subsequently stained using a 0.4% crystal violet solution (prepared in 25% methanol. Finally, the colonies obtained after staining were photographed, quantified, plotted, and analyzed by comparing with vehicle control.

MCF-7 cells [5] = assay: Colony formation assay; assay type: cell-based, human; conditions: MCF-7, IC50 concentration of EA, 10–12 days, vs vehicle control
Experimental: as §2

MDA-MB-231 cells [6] = assay: Apoptosis assay (Annexin-V staining, flow cytometry); assay type: cell-based, human; conditions: MDA-MB-231, IC50 concentration of EA, 48 h
MCF-7 cells [7] = assay: as above; assay type: cell-based, human; conditions: MCF-7, IC50 concentration of EA, 48 h
CDK6 [8] = target: T1, CDK6; assay: Fluorescence binding (quenching) study with recombinant CDK6; conditions: for Ksv: Stern-Volmer plot; for ΔG°: van 't Hoff equation
Experimental: To study the binding affinity of EA with the recombinant CDK6, a fluorescence binding study was performed. CDK6 was titrated with the EA and corresponding emission spectra were recorded in the range of 300–400 nm after carrying out excitation at 280 nm. The inner filter effect was corrected for the obtained intensities. Fluorescence emission spectra were analyzed by the Stern-Volmer equation to find Stern-Volmer constant (Ksv) and modified Stern-Volmer equation to estimate the binding constant (K) and the number of binding sites (n). Other binding features were estimated by our previously described protocol.
With each reaction, changes in enthalpy and entropy are associated, which are evidence of the type of reaction taking place. Equation (1) (“van ’t Hoff equation”) was employed to calculate the thermodynamic parameters associated with this binding, (1) ΔG°=−RTLnK=ΔH°−TΔS°

CDK6 [9] = assay: CDK6 expression study (immunoblotting); assay type: cell-based, human; conditions: EA-treated vs vehicle control, immunoblot
Experimental: The cell lysates of EA-treated/untreated MCF-7 and MDA-MB-231 cell lines were prepared using RIPA cell lysis buffer (Thermo Fisher Scientific (USA)) and total protein was isolated. The amount of protein was quantified by a BCA-protein estimation kit. Nearly, 50–60 μg of total protein was subjected for SDS-PAGE, and obtained bands were blotted to polyvinylidene fluoride membrane. The protein of interest was identified using respective primary antibodies and horseradish peroxidase (HRP) conjugated secondary IgG using the luminol method.

CDK6 [10] = target: T1, CDK6; assay: ATPase enzyme inhibition assay (malachite green); assay type: biochemical; conditions: CDK6 1 µM, ATP 50 µM, 25 °C, 1 h, AAT Bioquest calculator
Experimental: ATPase assay was performed to see the CDK6 inhibitory activity of EA [57]. For a typical kinase reaction, freshly prepared ATP (50 µM) was incubated with CDK6 (1 µM) in a reaction volume of 100 μL and incubated at 25 °C for 1 h. Similar reactions were set up with the increasing concentration of EA. Malachite green (200 μL) was further added to the reaction mixture to stop the reaction followed by incubation of samples at room temperature for 20–25 min for the development of color. The absorbance of the final reaction product was measured spectrophotometrically at 620 nm.

[11] = van 't Hoff plot over 298, 301, 303 K (same value printed at each temperature)

T1 sequence (Q00534 whole entry): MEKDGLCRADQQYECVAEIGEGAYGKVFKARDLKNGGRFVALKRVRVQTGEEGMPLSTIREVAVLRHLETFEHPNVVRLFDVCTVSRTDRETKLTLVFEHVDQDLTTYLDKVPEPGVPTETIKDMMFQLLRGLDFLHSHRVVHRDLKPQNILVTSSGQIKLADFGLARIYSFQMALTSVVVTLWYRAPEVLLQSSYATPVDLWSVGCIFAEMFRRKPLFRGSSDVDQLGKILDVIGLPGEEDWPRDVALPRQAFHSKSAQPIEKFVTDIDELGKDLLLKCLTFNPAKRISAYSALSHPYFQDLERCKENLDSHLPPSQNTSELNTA

Compound O=c1oc2c(O)c(O)cc3c(=O)oc4c(O)c(O)cc1c4c23 [EA, ellagic acid] has a Kd (CDK6 [1]) of 39.7 µM, an IC50 (MDA-MB-231 cells [2]) of 20.5 ± 1.22 µM and an IC50 (MCF-7 cells [3]) of 29.1 ± 1.15 µM. The number of colonies (MDA-MB-231 cells [4]) was “decreases the number of colonies significantly”, the number of colonies (MCF-7 cells [5]) was “decreases the number of colonies significantly” and the “Annexin-V positive cells (apoptosis)” value (MDA-MB-231 cells [6]) was 27.9%. The “Annexin-V positive cells (apoptosis)” value (MCF-7 cells [7]) was 23.3%, the “Kq (bimolecular quenching rate constant)” value (CDK6 [8]; 298 K) was 5.8 10^12 M^−1s^−1 and the “TΔS°” value (CDK6 [8]; 298 K) was 84.60 kcal/mol. For the same compound, the “Kq (bimolecular quenching rate constant)” value (CDK6 [8]; 301 K) was 14.2 10^12 M^−1s^−1, the “TΔS°” value (CDK6 [8]; 301 K) was 85.45 kcal/mol and the “Kq (bimolecular quenching rate constant)” value (CDK6 [8]; 303 K) was 19.8 10^12 M^−1s^−1. For the same compound, the “TΔS°” value (CDK6 [8]; 303 K) was 86.02 kcal/mol, the Ksv (CDK6 [8]; 298 K) was 5.8 10^4 M^−1 and the Ksv (CDK6 [8]; 301 K) was 14.2 10^4 M^−1. The Ksv (CDK6 [8]; 303 K) was 19.8 10^4 M^−1, the “binding constant (K)” value (CDK6 [8]; fluorescence quenching, modified Stern-Volmer, 303 K) was 2.6e+07 M⁻¹ and the Kd (CDK6 [8]; fluorescence quenching, modified Stern-Volmer, 303 K, read-out: binding constant (K)) was 0.1 µM. The “n (number of binding sites)” value (CDK6 [8]; modified Stern-Volmer, 298 K) was 1.32, the Kd (CDK6 [8]; modified Stern-Volmer, 298 K, read-out: K (binding constant) (converted)) was 0.345 µM and the “n (number of binding sites)” value (CDK6 [8]; modified Stern-Volmer, 301 K) was 1.16. The Kd (CDK6 [8]; modified Stern-Volmer, 301 K, read-out: K (binding constant) (converted)) was 0.154 µM, the “n (number of binding sites)” value (CDK6 [8]; modified Stern-Volmer, 303 K) was 1.41 and the Kd (CDK6 [8]; modified Stern-Volmer, 303 K, read-out: K (binding constant) (converted)) was 0.0385 µM. The “ΔG°” value (CDK6 [8]; 298 K) was -8.73 kcal/mol, the “ΔG°” value (CDK6 [8]; 301 K) was -9.59 kcal/mol and the “ΔG°” value (CDK6 [8]; 303 K) was -10.16 kcal/mol. For the same compound, the “ΔH°” value (CDK6 [8]; [11]) was 75.8657 kcal/mol, the ΔS (CDK6 [8]; [11]) was 283.9087 cal.mol^−1K^−1 and the “expression of CDK6” value (CDK6 [9]; MCF-7 cells) was “decreases the expression of CDK6”. The “expression of CDK6” value (CDK6 [9]; MDA-MB-231 cells) was “decreases the expression of CDK6” and the IC50 (CDK6 [10]) was 3.05 µM.
